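Results reflect a 48-hour exposure of cells in 96-well plates to compound at five concentrations. GI50 is the concentration that inhibits growth by half.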 Active and inactive are the calls of the source. Rule as the data show it: active = GI50 up to about 1.1 µM and inactive = higher.
Columns and labels:
Assay in all cases: DTP human tumour cell line panel, 48 h
SF-539 = system: SF-539
SF-295 = system: SF-295
A549 = system: A549
SN12C = system: SN12C
HT-29 = system: HT-29
MDA-MB-231 = system: MDA-MB-231
TK-10 = system: TK-10
OVCAR-8 = system: OVCAR-8
MDA-N = system: MDA-N
SR = system: SR
U-251 = system: U-251
MOLT-4 = system: MOLT-4
HOP-62 = system: HOP-62
SK-MEL-2 = system: SK-MEL-2
OVCAR-4 = system: OVCAR-4
CCRF-CEM = system: CCRF-CEM
SW-620 = system: SW-620
RXF 393 = system: RXF 393
OVCAR-5 = system: OVCAR-5
COLO 205 = system: COLO 205

SMILES | GI50 (SF-539) | GI50 (SF-295) | GI50 (A549) | GI50 (SN12C) | GI50 (HT-29) | GI50 (MDA-MB-231) | GI50 (TK-10) | GI50 (OVCAR-8) | GI50 (MDA-N) | GI50 (SR) | GI50 (U-251) | GI50 (MOLT-4) | GI50 (HOP-62) | GI50 (SK-MEL-2) | GI50 (OVCAR-4) | GI50 (CCRF-CEM) | GI50 (SW-620) | GI50 (RXF 393) | GI50 (OVCAR-5) | GI50 (COLO 205)
CCOC(=O)c1cc(-c2ccc(OC)cc2)c([N+](=O)[O-])[nH]1 | > 10 µM (inactive) | > 10 µM (inactive) | > 10 µM (inactive) | > 10 µM (inactive) | > 10 µM (inactive) | 0.1 µM (active) | > 10 µM (inactive) | > 10 µM (inactive) | > 2.46 µM (inactive) | > 10 µM (inactive) | > 10 µM (inactive) | > 10 µM (inactive) | > 10 µM (inactive) | > 10 µM (inactive) | > 10 µM (inactive) | > 10 µM (inactive) | > 10 µM (inactive) | > 10 µM (inactive) | > 10 µM (inactive) | > 10 µM (inactive)
COC(=O)/C=C1/OC(c2ccc(C)cc2)=C(Cl)C1=O | 16.6 µM (inactive) | 19.8 µM (inactive) | 20.1 µM (inactive) | 17.9 µM (inactive) | 12.9 µM (inactive) | 16.9 µM (inactive) | 20.5 µM (inactive) | 16.9 µM (inactive) | 16.4 µM (inactive) | 0.489 µM (active) | 12 µM (inactive) | 4.23 µM (inactive) | 19.9 µM (inactive) | 16.7 µM (inactive) | 13.3 µM (inactive) | 3.26 µM (inactive) | 10.7 µM (inactive) | 7.66 µM (inactive) | 19.1 µM (inactive) | 11.2 µM (inactive)
COc1cc(/C=C/C(=O)OC2C(O)C3CC(OC(=O)c4cc(OC)c(OC)c(OC)c4)CC2N3C)cc(OC)c1OC (stereo not given) | 21.4 µM (inactive) | 23.4 µM (inactive) | > 50 µM (inactive) | 9.89 µM (inactive) | 14.2 µM (inactive) | 16.1 µM (inactive) | > 50 µM (inactive) | 12.5 µM (inactive) | 36.4 µM (inactive) | 10.1 µM (inactive) | 40.5 µM (inactive) | 46 µM (inactive) | 26.4 µM (inactive) | 47.1 µM (inactive) | > 50 µM (inactive) | 17.9 µM (inactive) | 16 µM (inactive) | 15.9 µM (inactive) | > 50 µM (inactive) | 12.3 µM (inactive)
Cn1cc(-c2ccc(CCOC3CCCCO3)cc2)c2c(C#N)cccc21 (stereo not given) | 55 µM (inactive) | 34.7 µM (inactive) | 31 µM (inactive) | > 100 µM (inactive) | 17 µM (inactive) | 86.1 µM (inactive) | 48.3 µM (inactive) | > 100 µM (inactive) | 48 µM (inactive) | 17.2 µM (inactive) | 28.6 µM (inactive) | 16.1 µM (inactive) | > 100 µM (inactive) | 28.7 µM (inactive) | 31.8 µM (inactive) | 24.4 µM (inactive) | 28.5 µM (inactive) | 45.3 µM (inactive) | > 100 µM (inactive) | 27 µM (inactive)
COc1cccc2c(NNc3ccccc3)c3ccc([N+](=O)[O-])cc3nc12 | 36.4 µM (inactive) | 27.5 µM (inactive) | 24.2 µM (inactive) | 47.1 µM (inactive) | 23.6 µM (inactive) | 43.6 µM (inactive) | 21.3 µM (inactive) | 31.1 µM (inactive) | 33.1 µM (inactive) | 18.7 µM (inactive) | 21.2 µM (inactive) | 1.03 µM (active) | 60.4 µM (inactive) | 25.8 µM (inactive) | 42 µM (inactive) | 12.5 µM (inactive) | 24.9 µM (inactive) | 48.9 µM (inactive) | > 100 µM (inactive) | 46.3 µM (inactive)
CC(=O)OC1=CC2(OC(C)=O)CC(C)(C)C1C1C(=O)C=CC(=O)C12 (stereo not given) | > 47.1 µM (inactive) | > 75 µM (inactive) | > 100 µM (inactive) | > 56.6 µM (inactive) | 19.8 µM (inactive) | 54 µM (inactive) | > 100 µM (inactive) | > 58.2 µM (inactive) | 31.1 µM (inactive) | > 64.3 µM (inactive) | > 66.2 µM (inactive) | > 63.8 µM (inactive) | > 80.9 µM (inactive) | > 100 µM (inactive) | > 100 µM (inactive) | > 100 µM (inactive) | > 65 µM (inactive) | 44.6 µM (inactive) | > 100 µM (inactive) | > 42.5 µM (inactive)
C1CN1c1nc(N2CC2)nc(N2CC2)n1 | 2.68 µM (inactive) | 2.37 µM (inactive) | 4.29 µM (inactive) | 2.95 µM (inactive) | 13.2 µM (inactive) | 20.2 µM (inactive) | 24 µM (inactive) | 7.55 µM (inactive) | 12.1 µM (inactive) | 0.5 µM (active) | 3.92 µM (inactive) | 0.495 µM (active) | 1.97 µM (inactive) | 17.7 µM (inactive) | 16.2 µM (inactive) | 0.82 µM (active) | 11 µM (inactive) | 6.78 µM (inactive) | 11.5 µM (inactive) | 13.6 µM (inactive)
c1ccc(COc2ccc(C[P+](c3ccccc3)(c3ccccc3)c3ccccc3)cc2)cc1 | 0.284 µM (active) | 0.318 µM (active) | 0.184 µM (active) | 0.305 µM (active) | 0.19 µM (active) | 0.776 µM (active) | 0.251 µM (active) | 0.163 µM (active) | 0.221 µM (active) | 0.46 µM (active) | 0.102 µM (active) | 0.285 µM (active) | 0.427 µM (active) | 0.109 µM (active) | 0.245 µM (active) | 0.627 µM (active) | 0.272 µM (active) | 0.0395 µM (active) | 0.269 µM (active) | 0.129 µM (active)
CC(=O)OC/C=C/Cn1nc(Br)c(=O)[nH]c1=O | > 100 µM (inactive) | > 100 µM (inactive) | > 100 µM (inactive) | > 100 µM (inactive) | > 100 µM (inactive) | > 100 µM (inactive) | > 100 µM (inactive) | > 100 µM (inactive) | > 100 µM (inactive) | > 100 µM (inactive) | > 100 µM (inactive) | > 100 µM (inactive) | > 100 µM (inactive) | > 100 µM (inactive) | > 100 µM (inactive) | > 100 µM (inactive) | > 100 µM (inactive) | > 100 µM (inactive) | > 100 µM (inactive) | > 100 µM (inactive)
CC(C(=O)OCc1ccccc1)(c1ccco1)N1C(=O)OC(c2ccccc2)C1c1ccccc1 (stereo not given) | > 100 µM (inactive) | > 100 µM (inactive) | > 100 µM (inactive) | > 100 µM (inactive) | > 100 µM (inactive) | > 30.5 µM (inactive) | > 100 µM (inactive) | > 100 µM (inactive) | > 51.1 µM (inactive) | > 34.8 µM (inactive) | > 100 µM (inactive) | 5.05 µM (inactive) | > 100 µM (inactive) | > 100 µM (inactive) | > 100 µM (inactive) | 4.04 µM (inactive) | > 100 µM (inactive) | > 100 µM (inactive) | > 100 µM (inactive) | > 100 µM (inactive)
[N-]=[N+]=CC(=O)COC(=O)c1ccccc1 | > 100 µM (inactive) | > 100 µM (inactive) | 74.1 µM (inactive) | > 100 µM (inactive) | > 100 µM (inactive) | > 100 µM (inactive) | > 100 µM (inactive) | > 100 µM (inactive) | > 100 µM (inactive) | 74.6 µM (inactive) | > 100 µM (inactive) | > 100 µM (inactive) | > 100 µM (inactive) | > 100 µM (inactive) | > 100 µM (inactive) | > 100 µM (inactive) | > 100 µM (inactive) | > 100 µM (inactive) | > 100 µM (inactive) | > 100 µM (inactive)
O=c1c2cc3c(cc2[nH]c2ncccc12)OCO3 | > 10 µM (inactive) | > 10 µM (inactive) | > 10 µM (inactive) | > 10 µM (inactive) | > 10 µM (inactive) | > 10 µM (inactive) | > 10 µM (inactive) | > 10 µM (inactive) | > 10 µM (inactive) | > 10 µM (inactive) | > 10 µM (inactive) | > 10 µM (inactive) | > 10 µM (inactive) | > 10 µM (inactive) | > 10 µM (inactive) | > 10 µM (inactive) | > 10 µM (inactive) | > 10 µM (inactive) | > 10 µM (inactive) | > 10 µM (inactive)
COC(=O)C1CC23C=CCN4CC(C2C)C2(c5ccccc5NC12)C43 (stereo not given) | > 100 µM (inactive) | > 100 µM (inactive) | > 100 µM (inactive) | > 100 µM (inactive) | > 100 µM (inactive) | > 100 µM (inactive) | > 100 µM (inactive) | > 100 µM (inactive) | > 100 µM (inactive) | > 100 µM (inactive) | > 100 µM (inactive) | > 100 µM (inactive) | > 100 µM (inactive) | > 100 µM (inactive) | > 100 µM (inactive) | > 100 µM (inactive) | > 100 µM (inactive) | > 100 µM (inactive) | > 100 µM (inactive) | > 100 µM (inactive)
NC(=O)c1ccc2c(c1)S(=O)(=O)c1ccccc1C2=O | 46.6 µM (inactive) | 57.8 µM (inactive) | > 100 µM (inactive) | > 100 µM (inactive) | > 100 µM (inactive) | 65.2 µM (inactive) | > 100 µM (inactive) | 33.1 µM (inactive) | > 100 µM (inactive) | > 100 µM (inactive) | 73.3 µM (inactive) | > 100 µM (inactive) | 45 µM (inactive) | > 100 µM (inactive) | > 100 µM (inactive) | > 100 µM (inactive) | > 100 µM (inactive) | > 100 µM (inactive) | > 100 µM (inactive) | > 100 µM (inactive)
